The values that follow come from PubChem BioAssay (NCI).

SMILES strings stand for the structures.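 Tested at 5 concentrations; 48 h exposure; 96-well plates; endpoints linearly interpolated, else capped at highest concentration. TGI marks complete inhibition of growth.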

Experiment in all cases: DTP human tumour cell line panel, 48 h
The test system of test [1] is A498 renal.
The test system of test [2] is A549 NSCLC.
Test [3] relates to HCC-2998 colon.
Test [4] deals with HCT-116 colon.
For test [5], the system named is HL-60(TB) leukemia.
Test [6] relates to HT29 colon.
For test [7], the system named is IGROV1 ovarian.
Test [8] concerns LOX IMVI melanoma.
Test [9] concerns MALME-3M melanoma.
Test [10] has as its system MOLT-4 leukemia.
Test [11] has as its system OVCAR-3 ovarian.
The subject of test [12] is OVCAR-5 ovarian.
In test [13] the test system is OVCAR-8 ovarian.
Test [14] deals with SF-539 CNS.
The subject of test [15] is SK-MEL-5 melanoma.
Test [16] concerns SK-OV-3 ovarian.
The test system of test [17] is SNB-75 CNS.
Test [18] has as its system MCF7 breast.
The test system of test [19] is U251 CNS.

In general, TGI refers to the concentration giving total growth inhibition. A low value points to more potent growth arrest.

Take `CC12CCC(=O)N1[C@@H](c1ccccc1)[C@@H](c1ccccc1)O2` (stereo partly specified): the TGI in [1], in test [2], in test [3], in [4], in [5] and in test [6] was above 100 µM in each case. The concentration for total growth inhibition (TGI) in [7], in [8], in test [9], in test [10], in test [11] and in test [12] was above 100 µM throughout. Moreover, the TGI in [13], in [14], in test [15], in [16] and in [17] was above 100 µM throughout.

Take `CNc1ccc(C)cc1S(=O)(=O)c1ccccc1[N+](=O)[O-]`: the TGI in test [1], in [2], in test [3], in test [4], in test [6] and in test [7] was above 100 µM each time. For the same compound, the TGI in [8] is above 100 µM; in test [9] it was above 100 µM; in test [18], 65 µM; in test [10], above 100 µM; in [11], above 100 µM; in [12], above 100 µM. Besides, the TGI in [13] was above 100 µM; in test [14], above 100 µM; in test [15] it was 46.1 µM; in test [16], above 100 µM; in test [17], above 100 µM; in [19], above 100 µM.

Turning to `C[Si](C)(C)CCOCN(C(=O)C1=CCC2(CC1)OCCO2)c1ccccc1I`, the TGI was 27.3 µM in [1]; 88.2 µM in test [2]; 50.5 µM in test [3]; 44.8 µM in test [4]; above 100 µM in test [6]; 42.9 µM in test [7]. For the same compound, the TGI in test [8] is above 100 µM; in [9] it was 52.9 µM; in [18], 34.4 µM; in test [10], 98.7 µM; in [11] it was 38.9 µM; in test [12], 41.9 µM. Moreover, the TGI in [13] is above 100 µM; in test [14], 53.4 µM; in [15], above 100 µM; in test [16], 33.4 µM; in test [17], 34.6 µM; in [19], above 100 µM.

As to `O=C(Cn1c2ccc(Br)cc2c2nc3ccccc3nc21)NNC(=O)NC1CCCCC1`, the TGI in test [1] is above 100 µM; in test [2], 41.7 µM; in [3], above 100 µM; in test [4], above 100 µM; in [8], above 100 µM; in test [9], above 100 µM. In addition, the TGI is above 100 µM in test [18]; 67.1 µM in test [10]; above 100 µM in [11]; above 100 µM in test [12]; above 100 µM in test [13]; above 100 µM in test [14]. In addition, the TGI in test [15] is above 100 µM; in test [16], above 100 µM; in test [17], 73.5 µM; in test [19] it was above 100 µM.

Regarding `C=C(C)C1Cc2c(cc3c(c2O)c(=O)c2ccccc2n3C)O1` (stereo unspecified), the TGI in test [1] was 22.1 µM; in test [2], 24.9 µM; in [3], 28.3 µM; in [4], 4.94 µM; in test [6], 7.32 µM; in test [7], 4.16 µM. Also, the TGI in test [9] is 3.41 µM; in test [18] it was 17 µM; in test [10] it was 1.99 µM; in test [11], 27.9 µM; in test [12], 26.1 µM; in test [13], 5.67 µM. Also, the TGI in test [14] was found to be 5.99 µM; in test [15] it was 8.02 µM; in test [16], 13.5 µM; in test [17] it was 17 µM; in test [19], 12.7 µM.

As for `COc1ccc(NCc2cccc3c(=O)c4ccc(Cl)cc4oc23)cc1`, the TGI in test [1], in test [2], in test [3], in test [4], in [7] and in test [8] was above 100 µM throughout. Besides, the TGI in [9], in [18], in [10], in test [11], in [12] and in test [13] was above 100 µM throughout. In addition, the TGI in [14], in test [15], in test [16], in [17] and in test [19] was above 100 µM throughout.

As for `COC(=O)C(Cc1c(-c2[nH]c3ccccc3c2CC(NC(C)=O)C(=O)OC)[nH]c2ccccc12)NC(C)=O` (stereo unspecified), the TGI in test [1], in [2], in [4], in test [5], in test [6] and in test [7] was above 100 µM each time. Moreover, the concentration for total growth inhibition (TGI) in [8], in [9], in test [10], in test [11], in test [12] and in test [13] was above 100 µM throughout. Besides, the TGI in test [14], in test [15], in test [16], in [17] and in test [19] was above 100 µM throughout.

As for `C=C1[C@@H](OC(C)=O)/C=C/C2C3C(=O)[C@@](C)(OC(C)=O)[C@H]([C@H](OC(C)=O)[C@]4(O)[C@@H](C)C(=O)O[C@H]4[C@H]1Cl)[C@@]23C` (stereo partly specified), the TGI in [1], in test [2], in [3], in test [4], in [6] and in test [7] was above 100 µM in each case. Moreover, the TGI in test [8], in test [9], in test [10], in test [11], in test [12] and in [13] was above 100 µM in each case. For the same compound, the TGI in test [15], in [16], in test [17] and in test [19] was above 100 µM in each case.
